From patent US6727241B2, “Anti-inflammatory compositions and methods of use” (Chemocentryx, priority 2002, dated 2004) come the findings set out here.

pIC50: −log10 of the molar value. Where two headings read alike, the source gives them in different places.

Assay [1] addresses T1, CCR1 (Homo sapiens, UniProt P32246).
T1 sequence (P32246 1-355): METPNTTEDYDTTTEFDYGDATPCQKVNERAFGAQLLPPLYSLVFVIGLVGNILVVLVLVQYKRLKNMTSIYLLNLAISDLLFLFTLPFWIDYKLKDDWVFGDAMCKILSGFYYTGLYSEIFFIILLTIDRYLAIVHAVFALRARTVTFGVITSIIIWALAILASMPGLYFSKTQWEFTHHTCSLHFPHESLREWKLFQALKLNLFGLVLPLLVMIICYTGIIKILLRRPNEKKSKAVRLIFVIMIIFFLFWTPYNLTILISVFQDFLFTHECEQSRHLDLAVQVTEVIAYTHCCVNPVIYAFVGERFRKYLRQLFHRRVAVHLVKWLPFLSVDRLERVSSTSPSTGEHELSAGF
Briefly: Inhibition of CCR1 ligand binding (125I labeled MIP-1α binding to CCR1 expressing cells). Details: expressed in transfected cells; host or cells: NSO murine myeloma (CCR1-NSO) or HEK 293 (CCR1-293). The method, then:
CCR1 expressing cells were centrifuged and resuspended in assay buffer (20 mM HEPES pH 7.1, 140 mM NaCl, 1 mM CaCl2, 5 mM MgCl2, and with 0.2% bovine serum albumin) to a concentration of 5.6×10^6 cells/ml (CCR1-NSO) or 2.2×10^6 cells/ml ([…].). Screening assays were set up as follows. First, 0.09 ml of cells (5×10^5 CCR1-NSO cells/well or 2×10^5 CCR1-293 cells/well) was added to the assay plates containing the compounds, giving a final concentration of ˜2-10 μM each compound. Then 0.09 ml of ^125I labeled MIP-1α (obtained from Amersham; Piscataway, N.J.) diluted in assay buffer to a final concentration of ˜50 pM, yielding ˜30,000 cpm per well, was added, the plates sealed and incubated for approximately 3 hours at 4° C. on a shaker platform. Reactions were aspirated onto GF/B glass filters pre-soaked in 0.3% polyethyleneimmine (PEI) solution, on a vacuum cell harvester (Packard Instruments; Meriden, Conn.). Scintillation fluid (50 μl; Microscint 20, Packard Instruments) was added to each well, the plates were sealed and radioactivity measured in a Top Count scintillation counter (Packard Instruments). Control wells containing either diluent only (for total counts) or excess MIP-1α or MIP-1β ([…], for non-specific binding) were used to calculate the percent of total inhibition for each set of compounds. After testing the CLIP plates, wells with 40% or greater inhibition were confirmed. If confirmed, the individual compounds of the CLIP's were tested for reactivity (deconvolution step). IC50 values are those concentrations required to reduce the binding of labeled MIP-1α to the receptor by 50%.
To identify small organic molecules that prevent the receptor CCR1 from binding ligand, an assay was employed that detected radioactive ligand (MIP-1α) binding to cells expressing exogenous CCR1 on the cell surface.
A NSO murine myeloma cell line (CCR1-NSO) and a human embryonic kidney (HEK) carcinoma cell line (CCR1-293) were constructed that constitutively expressed human CCR1 on the cell surface; these cells lack other chemokine receptors that bind MIP-1α. Equal numbers of cells were added to each well in the CLIP plate, where each pool contained 10 candidate organic compounds. The cells were then incubated with radio labeled MIP-1α. Unbound ligand was removed by washing the cells, and bound ligand was determined by quantifying radioactive counts. Cells that were incubated without any organic compound gave total counts; non-specific binding was determined by incubating the cells with unlabeled ligand and labeled ligand. Percent inhibition was determined by the equation:
% inhibition=1−[(sample cpm)−(nonspecific cpm)]/[(total cpm)−(nonspecific cpm)]×100
To ascertain a candidate compound's affinity for CCR1 as well as confirm its ability to inhibit ligand binding, inhibitory activity was titered over 1×10^−8 to 1×10^−4 M range of compound concentration. The assay was essentially the same as for the CLIP screens, except the amount of compound was varied; cell number and ligand concentration were held constant. Only those compounds that were commercially available at the time of the experiments were titered. Of the 22 candidates identified, the following 16 were subjected to dose response experiments: CCX-3343, CCX-1057, CCX-1307, CCX-1513, CCX-238, CCX-3345, CCX-3493, CCX-4425, CCX-4462, CCX-4682, CCX-469, CCX-5062, CCX-5119, CCX-541, CCX-6019 and CCX-6530.

The subject of assay [2] is bradykinin-induced calcium signaling. Nature of the assay: Calcium mobilization in response to bradykinin (specificity control). It counts as cell-based, human. The arrangement: key: +: pulse observed; −: no pulse observed; n.s.: non-specific signal. The note with it: CCR1-293 or THP-1 cells loaded with INDO-1; compound 10 to 20 μM; bradykinin added after MIP-1α. The protocol:
(§1) To detect the release of intracellular stores of calcium, cultured cells were incubated with 3 μM of INDO-1AM dye (Molecular Probes; Eugene, Oreg.) in cell media for 45 minutes at room temperature and washed with phosphate buffered saline (PBS). After INDO-1AM loading, the cells were resuspended in flux buffer (Hank's balanced salt solution (HBSS) and 1% FBS). Calcium mobilization was measured using a Photon Technology International spectrophotometer (Photon Technology International; New Jersey) with excitation at 350 nm and dual simultaneous recording of fluorescence emission at 400 nm and 490 nm. Relative intracellular calcium levels were expressed as the 400 nm/490 nm emission ratio. Experiments were performed at 37° C. with constant mixing in cuvettes each containing 10^6 cells in 2 ml of flux buffer. The chemokine ligands may be used over a range from 1 to 100 nM. The emission ratio was plotted over time (typically 2-3 minutes). Candidate ligand blocking compounds (10 to 20 μM) were added at 10 seconds, followed by chemokines at 60 seconds (MIP-1α; R&D Systems; Minneapolis, Minn.) and control […] (bradykinin; ICN Pharmaceutical, Costa Mesa, Calif.) at 150 seconds. In some experiments, candidate blocking compounds and cells were added simultaneously, and MIP-1α was added 40 seconds later.
(§2) Calcium ion release in response to MIP-1α binding was measured using the cell permeable INDO-1/AM indicator, which fluoresces in the presence of free, but not chelated, calcium ions. CCR1-293 or THP-1 cells were loaded with INDO-1 and assayed for calcium release in response to MIP-1α addition. To control for specificity, a second, non-CCR1 binding […], bradykinin, was added, which also signals via a seven transmembrane receptor. Without compound, a pulse of fluorescent signal will be seen upon MIP-1α addition.

Assay [3] addresses T1, CCR1. Briefly: Calcium mobilization in response to MIP-1α (INDO-1). Details: expressed in transfected cells; host or cells: HEK 293 (CCR1-293), pIRESpuro vector; key to MIP-1α: calcium pulse: +: pulse observed; −: no pulse observed; n.s.: non-specific signal. It counts as cell-based. The note with it: for MIP-1α: calcium pulse: CCR1-293 or THP-1 cells loaded with INDO-1, compound 10 to 20 μM added before MIP-1α; for Comments (inhibition of calcium signaling) / Inhibition of CCR1 calcium signaling, result in words: Table 2; for Inhibition of CCR1 calcium signaling, result in words: MIP-1α versus bradykinin. The protocol: as §1
CCR1 is a seven transmembrane, G-protein linked receptor. A hallmark of signaling cascades induced by the ligation of such receptors is the pulse-like release of calcium ions from intracellular stores. Calcium mobilization assays were performed to determine if the candidate MIP-1α inhibitory compounds were able to also block CCR1 signaling. To be useful, candidate compounds able to inhibit specifically ligand binding and signaling were desired.
as §2
In general terms: A change in cytosolic calcium serves as a functional read-out for many receptors and channels.

Setting [4] is: CCR1-NSO cells; compound titered 1×10^−8 to 1×10^−4 M; read-out: IC50 (Inhibition Constant; μM), CCR1-MIP-1α binding.
Where [5] appears, read: CCR1-293 cells; compound titered 1×10^−8 to 1×10^−4 M; * = partially blocked MIP-1α binding at the highest tested concentration; read-out: IC50 (Inhibition Constant; μM), CCR1-MIP-1α binding.
[6] abbreviates: compound titered 1×10^−8 to 1×10^−4 M; cells not given.
[7] abbreviates: dose response; cells not given; read-out: CCR1 affinity (MIP-1α binding).

A word on the IC50: it is the concentration at which inhibition is half-maximal. On to `O=C(O)c1ccc2c(c1)C1C=CCC1C(C(=O)O)N2` (stereo not shown) [CCX-1959], for which the IC50 on CCR1 [1] (setting [4]) is 0.36 µM.

Regarding `O=C(C[n+]1ccc(-c2ccccc2)cc1)Nc1ccc([N+](=O)[O-])cc1` [CCX-1057], the IC50 on CCR1 [1] (setting [5]) was 2 µM.

With `COC(=O)c1cc(C#N)c(Sc2c([N+](=O)[O-])cc(C(F)(F)F)cc2[N+](=O)[O-])nc1C(OC)OC` [CCX-5119], the IC50 at CCR1 [1] (read-out: IC50 (Inhibition Constant; μM), CCR1-MIP-1α binding; CCR1-293 cells; compound titered 1×10^−8 to 1×10^−4 M; * = partially blocked MIP-1α binding at the highest tested concentration) turned out to be 45 µM.

Turning to `CC[n+]1c(/C=C/C=C2/N(C)c3ccccc3C2(C)C)ccc2c1c1cc(Br)ccc1n2C` [CCX-2324], the IC50 on CCR1 [1] (setting [5]) is 2 µM.

As for `O=C1NCCCCC1N(Cc1ccccc1F)C(=O)C(c1ccccc1)c1ccccc1` (stereo not shown) [CCX-469], in assay [2], the “Bradykinin: calcium pulse” value was “+”. Moreover, on CCR1 [3], the “MIP-1α: calcium pulse” value is reported as “−”; the “Comments (inhibition of calcium signaling)” value is “Clear and specific”; the “Inhibition of CCR1 calcium signaling, result in words” value (from here on “Inhibition of CCR1 calcium signaling”) is “able to significantly and specifically inhibit signaling from CCR1”. The IC50 on CCR1 [1] (setting [5]) was found to be 2 µM. At CCR1 [1] (setting [4]), the IC50 worked out at 0.6 µM.

Take `O=C(NN(Cc1c(F)cccc1Cl)c1ccccc1)C(Cl)(Cl)Cl` [CCX-6019]: on CCR1 [1] (setting [4]), the IC50 worked out at 25 µM.

Take `O=C(O)C1=C(Sc2ccc(Cl)cc2)CSC1` [CCX-4682]: the IC50 on CCR1 [1] (setting [4]) stood at 44 µM.

With `S=c1[nH]nc(-c2ccc(Cl)cc2)n1-c1cccnc1` [CCX-3493], the “Bradykinin: calcium pulse” value in assay [2] is listed as “+”. Further, at CCR1 [3], the “MIP-1α: calcium pulse” value was “+”; the “Comments (inhibition of calcium signaling)” value is “No inhibition”; the “Inhibition of CCR1 calcium signaling” value is recorded as “did not affect signaling, whether MIP-1α or bradykinin induced”. At CCR1 [1] (setting [5]), the IC50 stood at 18 µM. Further, the half-inhibitory concentration (IC50) at CCR1 [1] (setting [4]) was 1.7 µM.

For the compound `O=C(c1ccc(Cl)c(Cl)c1)C12CN3CN(CN(C3)C1)C2` [CCX-1307], the IC50 on CCR1 [1] (setting [5]) is 2 µM.

Take `CC1CCC(C(C)C)C(OCC(O)CN2CCC(Cc3ccccc3)CC2)C1` (stereo not shown) [CCX-3345]: on CCR1 [1] (setting [6]), the “Dose-response inhibition of MIP-1α binding, result in words” value (shortened to “Dose-response inhibition”) is on record as “failed to completely inhibit MIP-1α binding at the highest tested concentration”. The pIC50 at CCR1 [1] (setting [7]) is roughly 5.70.

With `Cc1ccc(C(/C(Cl)=C(\Cl)C(=O)O)c2ccc(C)cc2C)c(C)c1` [CCX-541], the “Bradykinin: calcium pulse” value in assay [2] is listed as “n.s”. On CCR1 [3], the “MIP-1α: calcium pulse” value is “n.s”; the “Comments (inhibition of calcium signaling)” value is recorded as “Calcium levels increased non-”; the “Inhibition of CCR1 calcium signaling” value is on record as “non-specific effects on calcium levels”. Moreover, the concentration for half-maximal inhibition (IC50) on CCR1 [1] (setting [4]) amounted to 0.4 µM.

On to `c1ccc(C2C3=C(Nc4nc5ccccc5n42)c2ccccc2CCC3)cc1` (stereo not shown) [CCX-1080], for which, on CCR1 [1] (setting [5]), the IC50 came to 2 µM.

`CC1CCC(C(C)C)C(OCC(O)CN2CCN(c3ccc(F)cc3)CC2)C1` (stereo not shown) [CCX-3343]: the “Dose-response inhibition” value on CCR1 [1] (setting [6]) was “failed to completely inhibit MIP-1α binding at the highest tested concentration”. At CCR1 [1] (setting [7]), the pIC50 was roughly 5.70.

For `CC(=O)C1=C(O)C(=O)N(c2ccc(Br)cc2)C1c1ccc(F)cc1` (stereo not shown) [CCX-5062], the “Dose-response inhibition” value on CCR1 [1] (setting [6]) was “failed to completely inhibit MIP-1α binding at the highest tested concentration”. Moreover, the pIC50 at CCR1 [1] (setting [7]) was roughly 5.70.
